Results from publication PMC11286609, “In vitro and in vivo analyses of eFAP: a novel FAP-targeting small molecule for radionuclide theranostics and other oncological interventions” (EJNMMI Radiopharmacy and Chemistry, 2024).

Tests used:
HT1080-WT cells = experiment: Confocal microscopy of fluorescent tracer uptake, HT1080-WT; type: cell-based, human; settings: HT1080-WT (FAP-negative control), 1 nM
Experimental: (§1) Cell experiments were performed with the human sarcoma HT1080 cell line, stably transduced with human FAP (HT1080-huFAP) which were kindly provided by Prof. Dr. Uwe Haberkorn from the University of Heidelberg. The wild type HT1080 (ATTC), hereafter HT080-WT, was used as a negative control. Additionally, the pancreatic stellate cells PS-1, obtained from Queen Mary University, were used as an endogenously FAP expressing cell line. HT1080-huFAP and HT1080-WT cells were cultured in DMEM Glutamax© (Gibco; Breda, The Netherlands) and the PS-1 cells were cultured in RPMI (Gibco). Both media were supplemented with 10% FBS (Gibco), 100 UI/mL penicillin, and 100 µg/mL streptomycin (Merck Life Science NV; Amsterdam, The Netherlands). All cell lines were regularly passaged at 80% confluence and cultured at 37 °C, 5% CO2.
(§2) Fluorescent tracer uptake was analyzed on HT1080-huFAP, HT1080-WT, and PS-1 cells. One day prior to the assay 280,000 HT1080-huFAP, 300,000 HT1080-WT, and 460,000 PS-1 cells were seeded on […] coverslips in a 6-well plate. […] Cells incubated only in medium were taken along to correct for auto-fluorescence. […] Analyses were performed in Fiji (Schindelin et al. [2012]) and were subjected to a custom-made macro to correct for auto-fluorescence signal. […]

PS-1 cells = experiment: Confocal microscopy of fluorescent tracer uptake, PS-1; type: cell-based
Experimental: as §1, §2

[1] = Stability in PBS at 37 °C (radio-HPLC / LC-MS); type: physicochemical; settings: % intact labeled ligand, 37 °C
Experimental: (§3) For the stability assessment of eFAP-6, [^111In]In-eFAP-6 or [^177Lu]Lu-eFAP-6 (~ 3–7 MBq, 20 µL) was mixed with 180 µL of PBS (0.01 M, pH 7.4) and incubated at 37 °C for up to 24 h. A sample of the PBS solution was directly injected on the radio-HPLC at 1, 4, and 24 h after incubation. Additionally, [^111In]In-eFAP-6 and [^177Lu]Lu-eFAP-6 (5–15 MBq, 50 µL) were incubated with 350 µL of commercially acquired mouse or human serum (Biolegend; San Diego, CA, USA) at 37 °C for up to 24 h. Following 1, 4, and 24 h of incubation, 50 µL of the solution were mixed with 50 µL of acetonitrile in an Eppendorf tube, and centrifuged at 5000× g for 20 min. The supernatant was then analyzed by radio-HPLC. Stability studies of eFAP-7 were performed by incubation of eFAP-7 (50 µL, 10^− 4 M) in 450 µL PBS or serum at 37 °C for up to 24 h. After 1, 4, and 24 h of incubation, 50 µL of the PBS incubation solution were directly analyzed by liquid chromatography-mass spectrometry (LC-MS), while 50 µL of the serum solution was mixed with 50 µL of acetonitrile in an Eppendorf tube, and centrifuged at 5000× g for 20 min, followed by LC-MS analyses.

HT1080-huFAP cells = experiment: Confocal microscopy of fluorescent tracer uptake, HT1080-huFAP; type: cell-based, human
Experimental: as §1, §2

[2] = LogD7.4 shake-flask method (n-octanol/PBS); type: physicochemical; settings: n-octanol/PBS (1:1 v/v); n-octanol/PBS pH 7.4, shake-flask
Experimental: The distribution coefficients (LogD7.4) were determined using a shake-flask method, in which 2 µL (~ 0.5 MBq) of [^111In]In-eFAP-6 or 10 µL of eFAP-7 (10^− 4 M) was added to an Eppendorf tube containing 1 mL of PBS (0.01 M, pH 7.4) and n-octanol (v/v, 1:1). After vigorous vortexing, the solution was centrifuged at 2500× g for 15 min for phase separation. For radiolabeled eFAP-6, samples (3 × 10 µL) of the octanol and aqueous phases were taken out and measured in a 1480 Wizard automatic γ-counter (PerkinElmer; Groningen, The Netherlands). LogD7.4 values were calculated by using the following equation: LogD7.4 = log [(counts in octanol phase)/(counts in aqueous phase)]. For eFAP-7, samples (50 µL) of the octanol and aqueous phases were taken out and measured by LC-MS. LogD7.4 values were calculated by using the following equation: LogD7.4 = log [(area in octanol phase)/(area in aqueous phase)].

[3] = Stability in human serum at 37 °C (radio-HPLC / LC-MS); type: in vitro ADME; settings: % intact labeled ligand, human serum, 37 °C
Experimental: as §3

[4] = Stability in mouse serum at 37 °C (radio-HPLC / LC-MS); type: in vitro ADME; settings: % intact labeled ligand, mouse serum, 37 °C
Experimental: as §3

SMILES: CN1/C(=C/C=C/C=C/C2=[N+](CCCCCC(=O)NCCCOc3cccc4c(C(=O)NCC(=O)N5CC(F)(F)C[C@H]5C#N)ccnc34)c3ccc(S(=O)(=O)[O-])cc3C2(C)C)C(C)(C)c2cc(S(=O)(=O)O)ccc21 [eFAP-7, 1-(6-((3-((4-((2-((S)-2-cyano-4,4-difluoropyrrolidin-1-yl)-2-oxoethyl)carbamoyl)quinolin-8-yl)oxy)propyl)amino)-6-oxohexyl)-3,3-dimethyl-5-sulfo-2-((1E,3E)-5-((E)-1,3,3-trimethyl-5-sulfoindolin-2-ylidene)penta-1,3-dien-1-yl)-3H-indol-1-ium]
- uptake in HT1080-WT cells (HT1080-WT cells): no uptake was observed
- sCy5 signal with an excess of UAMC-1110 (PS-1 cells; PS-1, 1 nM tracer + 1 mM UAMC-1110): almost no visible signal
- uptake in PS-1 cells relative to HT1080-huFAP (PS-1 cells; PS-1, 1 nM, 15 and 45 min): visibly lower than for HT1080-huFAP
- Stability (% ± SD) PBS 1 h ([1]; 1 h): 99.5 ± 0.5%
- Stability (% ± SD) PBS 4 h ([1]; 4 h): 99.2 ± 0.7%
- Stability (% ± SD) PBS 24 h ([1]; 24 h): 99.1 ± 0.1%
- sCy5 signal with an excess of UAMC-1110 (HT1080-huFAP cells; 1 nM tracer + 1 mM UAMC-1110): almost no visible signal
- sCy5 signal (uptake) in cells (HT1080-huFAP cells; 1 nM, 15 and 45 min of incubation): a clear signal was visible
- logD [2]: -0.94 ± 0.26
- Stability (% ± SD) Human serum 1 h ([3]; 1 h): 87.6 ± 0.9%
- Stability (% ± SD) Human serum 4 h ([3]; 4 h): 87.9 ± 2.3%
- Stability (% ± SD) Human serum 24 h ([3]; 24 h): 85.5 ± 2.1%
- Stability (% ± SD) Mouse serum 1 h ([4]; 1 h): 85.0 ± 3.3%
- Stability (% ± SD) Mouse serum 4 h ([4]; 4 h): 83.2 ± 4.1%
- Stability (% ± SD) Mouse serum 24 h ([4]; 24 h): 76.2 ± 7.1%
